Like-named read-outs stand apart in the source and are kept apart here.

The experiment deals with Brain Homogenate. The experiment is described as follows: Peroxylipid formation inhibiting effect in brain homogenate (thiobarbituric acid (TBA) method). The experiment is classed as biochemical, Wistar rats (male, 12-week old). As to conditions: 37° C., 30 minutes, pH 7.4. The method, then:
JC1:Wistar rats (male, 12-week old) were used as test animals. The rats were sacrificed by decapitation, and the brain was quickly removed and homogenized with 10 ml of 10 mM Tris-HCl buffer (pH 7.4) containing 150 mM KCl. The resulting homogenate was centrifuged at 2,200 rpm, at 4° C., for 10 minutes, and the supernatant was used in the test. 250 μl of the supernatant was put into a 96-well plate, to which was added a test compound and incubated at 37° C. for 30 minutes.
The concentration of glutamic acid and succinic acid, if added prior to the incubation, was 5.0 mM and 2.5 mM, respectively.
To determine the amount of the peroxylipid formed, used was a thiobarblturic acid (TBA) method. Briefly, 50 μl of 35% perchloric acid was added to the incubated mixture, which was then centrifuged at 2,000 rpm, at 4° C., for 10 minutes. The resulting supernatant was transferred into a different 96-well plate in an amount of 200 μl/well. 100 μl/well of TBA (5 mg/ml TBA in 50% acetic acid) was added thereto, and reacted at 80° C. for 1 hour. Then, the reaction mixture was cooled to room temperature, and its absorbance at 532 nm was measured.
On the other hand, a calibration curve was prepared using tetraethoxypropane which is a […] for TBA. In the same manner, the peroxylipid concentration in a sample that had been incubated for 30 minutes in the absence of the test compound, and also the peroxylipid concentration in a sample to which had been added 35% perchloric acid prior to the incubation (in the absence of the test compound) were also obtained. The inhibition percentage was calculating according to the following equation. The 50% inhibitory concentration (IC50) was obtained, using a log-probit method.
Inhibition Percentage (%)=[(C-A)/(C-B)]×100
A: Peroxylipid concentration in the sample to which was added the test compound;
B: Peroxylipid concentration in the sample to which was added 35% perchloric acid prior to the incubation;
C: Peroxylipid concentration in the sample to which was not added the test compound.

Setting [1] is: brain homogenate only, read-out: Peroxylipid Formation Inhibiting Effect (IC50) Brain Homogenate Only.
Where [2] appears, read: glutamic acid 5.0 mM and succinic acid 2.5 mM added prior to incubation, read-out: Peroxylipid Formation Inhibiting Effect (IC50) Glutamic Acid and Succinic Acid Added.

The IC50 is the concentration that inhibits the measured activity by half. As to `COC1=C(OC)C(=O)C2=C(CC(CCCCCCCCO)C2)C1=O` [Ex. 10, 2-(8-Hydroxyoctyl)-5,6-dimethoxyindan-4,7-dione], the IC50 was determined as 1.1 µM under setting [1] and 0.17 µM under setting [2].

Regarding `CCOC(=O)CCCCCCCC1CC2=C(C1)C(=O)C(OC)=C(OC)C2=O` [Ex. 9, Ethyl 8-(5,6-dimethoxy-4,7-dioxoindan-2-yl)octanoate], the IC50 under setting [1] worked out at 2.3 µM and the 50% inhibitory concentration (IC50) under setting [2] was 0.94 µM.

These data come from patent US6326369A, “Bicyclic quinone compounds, their production and use” (Takeda Chemicals Industries, Ltd., priority 1997, dated 2001).
